US20130123326A1, “ALLOSTERIC BINDING COMPOUNDS” (REGION MIDTJYLLAND, priority 2009, published 2013)
Where two headings read alike, the source gives them in different places.

Legend:
Balb/cJ male mice = experiment: Forced swim test (FST); type: in vivo; conditions: intraperitoneally 30 min prior to FST, seven minutes scoring period
Protocol: FIGS. 5A and 5B. Effect of allosteric compound in the mouse forced swim test (FST). Drugs were dissolved in 10% β-2-hydroxy-cyclodextrine. Male BalB/c were injected intraperitoneally with 500 μl SSRI alone or in combination with allosteric compound 30 min prior to FST (n=8). Vehicle treated animals each received 500 μl 10% 13-2-hydroxy-cyclodextrine. […] FIG. 5B depicts the effect of 5 mg/(kg bodyweight) of escitalopram alone and in combination with 15 mg/(kg bodyweight) of the allosteric compound of Example 1 (denoted ALN10 in figure). […]
FST is a behavioral model widely used to assess antidepressant-like activity in mice Porsholt et al, 1978). […] The total duration of immobility within a seven minute test period, is the main parameter measured. […]
Male BalB/c were injected intraperitoneally with 500 μl SSRI alone or in combination with allosteric compound 30 min prior to the swimming session (n=6). […] Swim sessions were videofilmed and analyzed by a blind scorer using stop watch, or by analyzing software (Ethovision, Noldus). The parameter measured was amount of time spent in a state of immobility, including small movements to keep balance and head over water. […]
FIGS. 5A and 5B gives the results from the forced swim test for the compound of Example 1. […] The dose of SSRI was chosen to be the highest sub-active concentration determined. […]

hSERT = hSERT (Homo sapiens, UniProt P31645); experiment: Dissociation assay with [3H]-citalopram and hSERT membrane preparations; type: binding; conditions: for Max. Stability (maximum stabilization factor): estimated upper plateau of sigmoidal response curve: how many folds the off-rate of bound radioligand from SERT can be attenuated, N/A = No activity
Sequence of hSERT (P31645 whole entry): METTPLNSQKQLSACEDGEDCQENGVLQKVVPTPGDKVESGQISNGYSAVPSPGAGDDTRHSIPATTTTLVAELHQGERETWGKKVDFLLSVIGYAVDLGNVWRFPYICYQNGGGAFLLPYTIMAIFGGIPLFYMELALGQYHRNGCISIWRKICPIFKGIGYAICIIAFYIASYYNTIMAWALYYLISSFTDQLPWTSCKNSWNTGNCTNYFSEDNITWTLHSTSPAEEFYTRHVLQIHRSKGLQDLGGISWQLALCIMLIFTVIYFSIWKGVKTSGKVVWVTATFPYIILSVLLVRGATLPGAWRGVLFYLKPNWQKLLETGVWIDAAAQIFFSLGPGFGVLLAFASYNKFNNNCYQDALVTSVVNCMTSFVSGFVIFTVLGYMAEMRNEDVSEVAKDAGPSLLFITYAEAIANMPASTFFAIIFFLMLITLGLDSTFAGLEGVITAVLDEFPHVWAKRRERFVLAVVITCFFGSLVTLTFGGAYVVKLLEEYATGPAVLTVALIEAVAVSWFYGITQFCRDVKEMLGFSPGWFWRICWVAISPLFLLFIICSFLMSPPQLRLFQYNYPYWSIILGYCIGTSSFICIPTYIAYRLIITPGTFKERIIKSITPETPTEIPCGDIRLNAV
Protocol: Dulbecco's modified Eagle's medium, fetal bovine serum, trypsin, and penicillin/streptomycin were purchased from Invitrogen. Cell culture flasks were from NUNC. MicroScint-20 scintillation mixture was from Packard. [^3H]-Citalopram (85 Ci/mmol) was a gift from H. Lundbeck A/S (Valby, Denmark). Fugene-6 transfection reagent was from Roche Molecular Biochemicals. All chemicals are commercially available. Stock solutions of the allosteric ligands were prepared as 100 mM in EtOH.
The pcDNA3 plasmid vector containing the hSERT gene was used for transfection.
17.5 μl Fugene-6 (Roche Molecular Biochemicals) were mixed with 280 μl Dulbecco's modified Eagle's medium, and incubated at room temperature for 5 minutes. 10 μg of hSERT plasmid were added and the mixture was further incubated at least 15 minutes. […] The cells were plated at 35% confluency in a 150 mm dish, and grown at 37° C. for 64 h. Prior to harvesting the dish was rinsed in PBS. Cells were harvested with a cell scraper in buffer 1 (50 mM Tris-base, 150 mM NaCl, 20 mM EDTA, pH 7.4). After centrifugation (3000 g at 4° C. for 10 mins), cells were suspended and homogenized with an IKA Ultra-Turrax from Rose Scientific Ltd (Edmonton, Alberta, Canada) for 20 s in buffer 1. Membranes were pelleted by ultracentrifugation (12 000 g at 4° C. for 15 min) and homogenization was repeated in buffer 1. Finally, after ultracentrifugation (12000 g, 4° C., 15 min) membranes were resuspended in 1 ml buffer 3 (50 mM Tris-base, 120 mM NaCl, 5 mM KCl, pH 7.4) and stored at −80° C.
Dissociation Assay with [^3H]-Citalopram and Membrane Preparations.
SERT-[^3H]-citalopram complex was formed by incubating hSERT membrane preparation and radioligand in buffer 3 during a 60 min incubation at 4° C. Radioligand was present at a concentration 10 times the Kd value. The time kinetic of dissociation was followed by adding 10 μL complex solution to 250 μL buffer 3 in 96-well plates and incubating subsequently for increasing time intervals at RT. Reactions were terminated by filtration through GF/C glass-fibre filters (Unifilter, Perkin Elmer Life Sciences), preincubated with 40 μl 0.5% polyethyleneimine, using a Pachard Bell cell harvester, and subsequently washed three times with water. Filters were soaked in 40 μl Microscint 20 scintillation liquid (Pachard Bell). Bound radioactivity was determined by direct counting of plates using a Packard Bell microplate scintillation counter. Dissociation curves were obtained by plotting residual binding vs. time of dissociation.
The concentrations of allosteric compound in the dissociation buffer range from 400-0.2 μM.
The relative off-rate is expressed as the off-rate of the radioligand at a given concentration of allosteric compound, normalized to the off-rate of radioligand in the absence of allosteric compound.
The maximum stabilization factor is defined as the estimated upper plateau of the sigmoidal response curve, and describes how many folds the off-rate of bound radioligand from SERT can be attenuated in the presence of increasing concentrations of allosteric compound in the dissociation buffer.

[1] = concentration of allosteric compound inducing 50% attenuation of the off-rate of the radioligand from SERT, 10 μM fluoxetine in dissociation buffer, read-out: EC50

Row | Structure (SMILES) | immobility time in FST, combination with escitalopram (Balb/cJ male mice; 15 mg/kg allosteric compound + 5 mg/kg (subactive) escitalopram) | immobility time in FST, combination with fluoxetine (Balb/cJ male mice; 15 mg/kg allosteric compound + 5 mg/kg (subactive) fluoxetine) | EC50 (hSERT; [1]) | Max. Stability (maximum stabilization factor) (hSERT) | EC50 (hSERT)
1 | CCOC(=O)c1cccc2ccccc12 [Example 1, 1-Naphthoic Acid Ethyl Ester] | significantly reduced immobility time | significantly reduced immobility time | 3.3 µM | 9.1 | 
2 | COC(=O)c1cccc2ccccc12 [Example 2, 1-Naphthoic Acid Methyl Ester] |  |  | 29 µM | 7.4 | 
3 | CCCOC(=O)c1cccc2ccccc12 [Example 3, 1-Naphthoic Acid Propyl Ester] |  |  | 2.1 µM | 17 | 
4 | CC(C)OC(=O)c1cccc2ccccc12 [Example 4, 1-Naphthoic Acid Isopropyl Ester] |  |  | 9.8 µM | 16 | 
5 | O=C(OCCO)c1cccc2ccccc12 [Example 6, 1-Naphthoic Acid 2-Hydroxyethyl Ester] |  |  | 14.5 µM | 20 | 
6 | C=CCOC(=O)c1cccc2ccccc12 [Example 8, 1-Naphthoic Acid 2-Propenyl Ester] |  |  | 16 µM | 11 | 
7 | C#CCOC(=O)c1cccc2ccccc12 [Example 9, 1-Naphthoic Acid 2-Propynyl Ester] |  |  | 15 µM | 13 | 
8 | CCNC(=O)c1cccc2ccccc12 [Example 10, 1-Naphthoic Acid Ethylamide] |  |  | 74 µM | 1.8 | 
9 | CCCSc1cccc2ccccc12 [Example 11, 1-Propyl-Sulfanyl-1-Naphthalene] |  |  | 4.7 µM | 6.4 | 
10 | CSc1cccc2ccccc12 [Example 12, Methyl-[1]Naphthyl Sulphide] |  |  | 17 µM | 10 | 
11 | CCSc1cccc2ccccc12 [Example 13, Ethyl-[1]Naphthyl Sulphide] |  |  | 9.4 µM | 8.3 | 
12 | CCCCSc1cccc2ccccc12 [Example 14, 1-Butyl-Sulfanyl-1-Naphthalene] |  |  | 12 µM | 3.6 | 
13 | OCCSc1cccc2ccccc12 [Example 15, 2-Hydroxyethyl-1-Naphthyl Sulphide] |  |  | 4.6 µM | 10.2 | 
14 | C#CCSc1cccc2ccccc12 [Example 16, 3-Ethynyl-Sulfanyl-1-Naphthalene] |  |  | 1.2 µM | 10.3 | 
15 | C=CCSc1cccc2ccccc12 [Example 17] |  |  | 3.2 µM | 6.3 | 
16 | CCCOc1cccc2ccccc12 [Example 21, 1-Propoxy-Naphthalene] |  |  | 46 µM | 3.9 | 
17 | CCOC(=O)n1ccc2ccccc21 [Example 24, Indole-1-Carboxylic Acid Ethyl Ester] |  |  | 1.3 µM | 9 | 
18 | CCOC(=O)n1ccc2ccc(C)cc21 [Example 27, 6-Methyl-Indole-1-Carboxylic Acid Ethyl Ester] |  |  | 34 µM | 15 | 
19 | CCOC(=O)n1ccc2ccc(Cl)cc21 [Example 28, 6-Chloro-Indole-1-Carboxylic Acid Ethyl Ester] |  |  | 31 µM | 8.8 | 
20 | CCOC(=O)n1nnc2ccccc21 [Example 29, Benzotriazole-1-Carboxylic Acid Ethyl Ester] |  |  | 61 µM | 5.4 | 
21 | O=C(OC1CCCC1)c1cccc2ccccc12 [Example 32, 1-Naphthoic Acid Cyclopentyl Ester] |  |  | 9.6 µM | 10 | 
22 | CCOC(=O)n1cc(C)c2ccccc21 [Example 35, 3-Methyl-Indole-1-Carboxylic Acid Ethyl Ester] |  |  | 5 µM | 6 | 
23 | Sc1cccc2ccccc12 [reference compound] |  |  | > 1000 µM |  | 
24 | CCOS(=O)(=O)c1cccc2ccccc12 [reference compound] |  |  |  | 3.1 | 120 µM
